In patent publication US7208153B2, “Method for the improvement of neuronal regeneration” (Neuraxo Biopharmaceuticals GmbH, priority 1997, dated 2007):
“Also recorded” adds a separate entry of the source.

Tests used:
[1] = system: transected postcommissural fornix axons; assay: Regeneration of transected postcommissural fornix axons across the lesion site (NF immunohistochemistry, anterograde tracing, electron microscopy); type: in vivo, Wistar rats
[2] = system: basal membrane formation (collagen IV) in the lesion site; assay: Lesion-induced basal membrane (collagen IV) deposition after postcommissural fornix transection, immunohistochemistry; type: in vivo, Wistar rats
Experimental: In an effort to modulate postlesion BM deposition, either polyclonal antibodies against collagen IV (anti-Coll IV; n=14) or the iron chelator a, a′-dipyridyl (DPY; n=9) were injected locally into the lesion center immediately after transection. […] (13) and enhanced procollagen degradation (14). Control animals received a PBS injection (n=9) or were sham operated (n=3). Basal membrane formation was studied in response to antibody and drug treatment using immunohistochemical methods. […] At 2 weeks after lesion+injection only a very small number of Coll-immunreactive structures perpendicular to the tract course had developed (FIG. 1e, f).
Surgery. The left postcommissural fornix of 42 Wistar rats (180–210 g) was transected stereotactically at a distance of about 1 mm proximal to the target, the mammillary body, using a Scouten wire knife as described previously (9). The completeness of transection was confirmed by serial reconstruction of the lesion site for each of the animals. Immediately after transection animals received a topical application (1.6 μl) of either polyclonal antibodies against collagen, IV (anti-Coll IV, Biogenex, 50–100 μg/ml, n=14) or the iron chelator a, a′-dipyridyl (DPY, 1–10 mM, n=9). Substances were pressure injected (injection time 10 min) directly into the lesion site via a micropipette coupled to a microsyringe. Controls received equal amounts of phosphate-buffered saline (n=9) or sham operation (n=3).
Immunohistochemical staining. After a survival time of 4 days (d), 6 d, 2 weeks (w), 4 w and 6 w after surgery brains were removed, frozen in isopentan (−50/−60° C.) and cut into serial sagittal 10 μm thick sections. […]

[3] = system: Na+-dependent action potentials of fornix fibers; design: species or system rats

SMILES | regeneration of transected fornix fibers across the lesion site (NF-immunohistochemistry) ([1]; 6 weeks postsurgery, FIG. 2) | elongation of fornix axons into and across the lesion center ([1]; between 2 and 4 weeks after lesion+injection, immunocytochemical staining) | lesion-induced BM deposition ([2]; local injection) | Coll-immunopositive laminae and blood vessels in the lesion center and the fornix stumps ([2]; single local injection immediately after transection, anti-Coll IV 80–160 ng or DPY 1.6–16 μmol, all examined survival time points) | Collagen IV deposition in the lesion site ([2]; two weeks postsurgery, FIG. 1e, f) | stimulus-evoked extracellular response [3]
c1ccc(-c2ccccn2)nc1 [DPY, a, a′-dipyridyl] | fibers traverse the former lesion site | large numbers of axons entered and traversed the lesion center | significantly reduced | massive and specific reduction | markedly reduced | –
NC1=N[C@H](O)[C@H]2[C@H]3O[C@]4(O)O[C@@H]([C@@H](O)[C@@]2(N1)[C@@H]4O)[C@]3(O)CO [Tetrodotoxin] | – | – | – | – | – | blocks the stimulus-evoked response; also recorded: blocked
